Activity calls are given as the source filed them. The rule behind the calls is not given here.

Usually IC50 stands for the concentration at which inhibition is half-maximal. Usually CC50 stands for the concentration giving 50% cytotoxicity.

For data set [1], the system named is BV-2. The data set is described as follows: Anti-neuroinflammatory activity in mouse BV-2 cells assessed as inhibition of LPS-induced NO production measured after 24 hrs by Griess reagent based assay. Format: functional, cell-based. As to conditions: BV-2, 24 h. (In general: The Griess reaction detects nitrite, a stable product of nitric oxide.)
A short description of data set [2]: Cytotoxicity against mouse BV-2 cells assessed as reduction in cell viability measured after 24 hrs by MTT assay. Format: cell-based. A general note: Tetrazolium dyes change colour on reduction, which living cells bring about.
The test system of data set [3] is BV-2. Description: Anti-neuroinflammatory activity in mouse BV-2 cells assessed as reduction in LPS-stimulated COX-2 mRNA expression at 1 to 10 uM by qRT-PCR analysis. The format is functional, cell-based. The following applies: dose 1-10 µM. (In general: In qPCR the cycle at which signal appears reflects the starting amount.)
The target in data set [4] is MAP kinase p38 (Mus musculus) (UniProt P47811+O08911+Q9WUI1+Q9Z1B7). The data set is described as follows: Inhibition of p38 phosphorylation in LPS stimulated mouse BV-2 cells at 1 to 10 uM preincubated with LPS for 1 hr followed by incubation with compound for 16 hrs by western blot analysis. Format: cell-based. As to conditions: dose 1-10 µM.
The subject of data set [5] is BV-2. Description: Anti-neuroinflammatory activity against LPS stimulated mouse BV-2 cells assessed as reduction in COX-2 protein expression at 1 to 10 uM measured after 24 hrs in presence of LPS by western blot analysis. The following applies: dose 1-10 µM. The format is functional, cell-based.
Data set [6] has as its system BV-2. Description: Inhibition of ERK phosphorylation in LPS stimulated mouse BV-2 cells at 1 to 10 uM preincubated with LPS for 1 hr followed by incubation with compound for 16 hrs by western blot analysis. As to conditions: dose 1-10 µM. The format is cell-based.
Data set [7] relates to BV-2. The data set is described as follows: Anti-neuroinflammatory activity in mouse BV-2 cells assessed as reduction in LPS-stimulated iNOS mRNA expression at 1 to 10 uM by qRT-PCR analysis. Format: functional, cell-based. The following applies: dose 1-10 µM.
Data set [8] deals with BV-2. The data set is described as follows: Anti-neuroinflammatory activity against LPS stimulated mouse BV-2 cells assessed as reduction in iNOS protein expression measured after 24 hrs in presence of LPS by western blot analysis. Format: functional, cell-based. As to conditions: dose 1-10 µM.
Data set [9] relates to BV-2. The data set is described as follows: Anti-neuroinflammatory activity in mouse BV-2 cells assessed as reduction in LPS-stimulated IL-6 production at 1 to 10 uM preincubated for 1 hr followed by LPS treatment and measured after 24 hrs by ELISA. Format: functional, cell-based. The following applies: dose 1-10 µM, time 25.0 hrs.
The target in data set [10] is Transcription factor p65 (Mus musculus) (UniProt Q04207). Description: Inhibition of NF-kappaB p65 nuclear translocation in LPS-stimulated mouse BV-2 cells at 10 uM incubated with compound prior to LPS stimulation by DAPI staining based immunofluorescence assay. The format is cell-based.
Transcription factor p65 (Mus musculus), sequence (Q04207 whole entry): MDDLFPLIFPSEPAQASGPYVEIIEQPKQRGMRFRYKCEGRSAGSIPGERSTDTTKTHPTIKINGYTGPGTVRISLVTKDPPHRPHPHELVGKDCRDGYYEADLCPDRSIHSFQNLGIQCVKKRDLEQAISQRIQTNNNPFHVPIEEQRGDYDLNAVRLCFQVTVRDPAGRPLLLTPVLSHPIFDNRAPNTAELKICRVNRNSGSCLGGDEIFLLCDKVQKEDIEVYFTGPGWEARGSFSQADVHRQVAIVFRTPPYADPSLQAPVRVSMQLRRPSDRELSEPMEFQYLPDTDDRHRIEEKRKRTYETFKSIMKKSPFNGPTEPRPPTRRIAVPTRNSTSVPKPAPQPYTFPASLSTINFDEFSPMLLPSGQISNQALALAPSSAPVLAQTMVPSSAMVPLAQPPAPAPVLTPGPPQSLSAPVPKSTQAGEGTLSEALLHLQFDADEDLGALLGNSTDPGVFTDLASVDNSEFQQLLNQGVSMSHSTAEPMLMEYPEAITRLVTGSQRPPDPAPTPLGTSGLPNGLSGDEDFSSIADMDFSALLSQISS
The subject of data set [11] is BV-2. Description: Anti-neuroinflammatory activity in mouse BV-2 cells assessed as reduction in LPS-stimulated TNF-alpha mRNA expression by qRT-PCR analysis. The format is functional, cell-based. As to conditions: dose 1-10 µM.
Data set [12] relates to BV-2. The data set is described as follows: Anti-neuroinflammatory activity in mouse BV-2 cells assessed as reduction in LPS-stimulated TNFalpha production at 1 to 10 uM preincubated for 1 hr followed by LPS treatment and measured after 24 hrs by ELISA. Format: functional, cell-based. As to conditions: dose 1-10 µM, time 25.0 hrs.
The subject of data set [13] is BV-2. The data set is described as follows: Inhibition of TLR4 production in LPS stimulated mouse BV-2 cells at 1 to 10 uM preincubated with LPS for 1 hr followed by incubation with compound for 16 hrs by western blot analysis. The format is functional, cell-based. As to conditions: dose 1-10 µM.
The target of data set [14] is c-Jun N-terminal kinase (Mus musculus) (UniProt Q91Y86+Q9WTU6+Q61831). The data set is described as follows: Inhibition of JNK phosphorylation in LPS stimulated mouse BV-2 cells at 1 to 10 uM preincubated with LPS for 1 hr followed by incubation with compound for 16 hrs by western blot analysis. Format: cell-based. As to conditions: dose 1-10 µM.
c-Jun N-terminal kinase (Mus musculus), sequence (Q61831 whole entry, looked up): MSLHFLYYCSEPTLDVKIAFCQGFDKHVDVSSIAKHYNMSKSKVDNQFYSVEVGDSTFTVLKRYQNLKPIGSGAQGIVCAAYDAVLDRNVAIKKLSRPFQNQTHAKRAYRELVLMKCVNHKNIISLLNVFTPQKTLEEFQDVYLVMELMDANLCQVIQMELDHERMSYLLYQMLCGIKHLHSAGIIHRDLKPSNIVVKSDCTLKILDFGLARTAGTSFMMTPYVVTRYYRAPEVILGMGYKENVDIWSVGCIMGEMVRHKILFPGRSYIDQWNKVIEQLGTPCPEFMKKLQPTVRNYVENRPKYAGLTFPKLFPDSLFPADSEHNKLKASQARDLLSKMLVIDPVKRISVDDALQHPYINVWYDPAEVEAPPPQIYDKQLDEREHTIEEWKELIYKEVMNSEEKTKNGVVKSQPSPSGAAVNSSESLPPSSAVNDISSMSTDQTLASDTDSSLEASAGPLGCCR
c-Jun N-terminal kinase (Mus musculus), sequence (Q91Y86 whole entry, looked up): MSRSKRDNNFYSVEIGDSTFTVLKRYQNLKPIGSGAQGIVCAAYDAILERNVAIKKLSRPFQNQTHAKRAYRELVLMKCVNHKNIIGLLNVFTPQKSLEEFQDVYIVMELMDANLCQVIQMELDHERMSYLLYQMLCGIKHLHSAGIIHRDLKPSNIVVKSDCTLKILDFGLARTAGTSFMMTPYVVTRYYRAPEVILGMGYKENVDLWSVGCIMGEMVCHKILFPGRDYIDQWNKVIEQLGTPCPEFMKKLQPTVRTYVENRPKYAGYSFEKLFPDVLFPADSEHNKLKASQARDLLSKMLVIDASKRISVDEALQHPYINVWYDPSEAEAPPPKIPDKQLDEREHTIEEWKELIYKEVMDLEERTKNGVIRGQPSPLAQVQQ
c-Jun N-terminal kinase (Mus musculus), sequence (Q9WTU6 whole entry, looked up): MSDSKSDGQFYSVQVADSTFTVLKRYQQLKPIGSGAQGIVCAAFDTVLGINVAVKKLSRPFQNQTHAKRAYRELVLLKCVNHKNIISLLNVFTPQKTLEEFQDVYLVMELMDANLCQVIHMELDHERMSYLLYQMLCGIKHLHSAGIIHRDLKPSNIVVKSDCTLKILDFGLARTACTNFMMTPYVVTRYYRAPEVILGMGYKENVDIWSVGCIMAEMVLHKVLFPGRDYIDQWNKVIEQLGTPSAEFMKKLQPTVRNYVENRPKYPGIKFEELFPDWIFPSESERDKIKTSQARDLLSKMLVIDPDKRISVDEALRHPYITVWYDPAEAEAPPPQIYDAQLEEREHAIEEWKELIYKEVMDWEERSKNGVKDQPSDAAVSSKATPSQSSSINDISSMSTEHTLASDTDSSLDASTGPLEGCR
In data set [15] the test system is BV-2. The data set is described as follows: Anti-neuroinflammatory activity in mouse BV-2 cells assessed as reduction in LPS-stimulated IL-1 beta production at 1 to 10 uM preincubated for 1 hr followed by LPS treatment and measured after 24 hrs by ELISA. As to conditions: dose 1-10 µM, time 25.0 hrs. The format is functional, cell-based.
Data set [16] deals with BV-2. The data set is described as follows: Anti-neuroinflammatory activity in mouse BV-2 cells assessed as reduction in LPS-stimulated IL-6 mRNA expression by qRT-PCR analysis. Format: functional, cell-based. The following applies: dose 1-10 µM.
The subject of data set [17] is BV-2. Description: Anti-neuroinflammatory activity in mouse BV-2 cells assessed as reduction in LPS-stimulated IL-1beta mRNA expression by qRT-PCR analysis. Format: functional, cell-based. As to conditions: dose 1-10 µM.

`Cc1c2c(cc(C(C)C)cc1=O)[C@@H](C)CC2`: the IC50 in the data set with BV-2 [1] was greater than 30 µM. In data set [2], the CC50 at 24 h is 76 µM.
The corresponding values for `Cc1c2c(cc(C(C)(C)O)cc1=O)[C@@H](C)C[C@@H]2O` are greater than 30 µM and 39 µM.
For `Cc1c2c(cc(C(C)C)cc1=O)[C@@](C)(O)CC2` the same measures were greater than 30 µM and 79 µM.
Regarding `Cc1c2c(cc(C(C)C)cc1=O)[C@](C)(O)C[C@@H]2O`, in the data set with BV-2 [1], the half-maximal inhibitory concentration (IC50) was greater than 30 µM. Besides, the CC50 at 24 h in [2] turned out to be 49 µM.
On to `CC(C)c1cc2c(c(CO)c(=O)c1)CC[C@@]2(C)O`, for which the IC50 with BV-2 [1] is greater than 30 µM. Also, in [2], the half-maximal cytotoxic concentration (CC50) at 24 h turned out to be 61 µM.
As for `CC(C)c1cc2c(c(CO)c(=O)c1)[C@@H](O)C[C@@H]2C`, in the data set on BV-2 [1], the IC50 was found to be 20 µM. The CC50 at 24 h in data set [2] is 49 µM.
Turning to `CC(C)c1cc2c(c(CO)c(=O)c1)[C@H](O)C[C@@H]2C`, the result in the data set with BV-2 [3], in the data set with BV-2 [5], with BV-2 [7], with BV-2 [9], in the data set with BV-2 [11] and in the data set on BV-2 [12] was Active. The result with BV-2 [15], with BV-2 [16] and in the data set on BV-2 [17] was Active. Moreover, the inhibition entry (in [4]; in the data set with BV-2 [6]; in the data set with BV-2 [13]; in data set [14]) was “inactive” in each case. Besides, in the data set with BV-2 [1], the IC50 was 9 µM. The CC50 at 24 h in data set [2] stood at 74 µM. In addition, the Activity result with BV-2 [8] was “Dose-Dependent Effect”. The inhibition result in data set [10] is “Active”.
On to `Cc1c2c(cc(C(C)C)cc1=O)[C@@H](C)C[C@H]2O`, for which, in the data set on BV-2 [1], the half-maximal inhibitory concentration (IC50) is 26 µM. In addition, in [2], the CC50 at 24 h was found to be 78 µM.
For `CNC(=N)NCCC[C@H](N)C(=O)O` [TILARGININE], in the data set on BV-2 [1], the concentration for half-maximal inhibition (IC50) came to 10 µM. Besides, in data set [2], the cytotoxic concentration (CC50) at 24 h was greater than 200 µM.
For `Cc1c2c(cc(C(C)C)cc1=O)[C@@H](C)C[C@@H]2O` the same measures were greater than 30 µM and 35 µM.

Source of the values: ChEMBL document CHEMBL4823279, “Epigenetic Manipulation to Trigger Production of Guaiane-Type Sesquiterpenes from a Marine-Derived Spiromastix sp. Fungus with Antineuroinflammatory Effects” (J Nat Prod, 2021).
